According to PMC6683251, “Flavanol Bioavailability in Two Cocoa Products with Different Phenolic Content. A Comparative Study in Humans” (Nutrients, 2019):
Values joined by “and” are separate entries in the source; they are usually repeats but may differ in a detail not shown here. Equal values may be shown once. Read-outs that look alike come from different tables or passages of the source.

Experiments:
[1] = Plasma nutrikinetics of flavanol metabolites after a single serving of soluble cocoa product (HPLC-ESI-QToF-MS); format: in vivo, human; details: for AUC: human plasma 0-8 h, read-out: AUC; for AUC / Tmax / Cmax: mean ± SD, n = 13; for Tmax / Cmax: human plasma; for Tmax: read-out: Tmax
Experimental: The study was carried out in thirteen healthy subjects (3 men and 10 women); the mens’ average age and body mass index were 26.67 ± 3.21 year and 22.47 ± 2.97 kg/m^2, respectively, and womens’ were 32.60 ± 9.85 year and 23.36 ± 3.73 kg/m^2, respectively. They were non-smoker, non-vegetarian, non-pregnant women, who were not taking any medication or nutritional supplements, and were not suffering from any chronic pathology or gastrointestinal disorder. The sample size was estimated attending to similar previous bioavailability studies. The volunteers gave their informed consent prior to participation.
(§1) The present randomized, single-blind study was carried out at the Human Nutrition Unit (HNU) of the Institute of Food Science, Technology and Nutrition (ICTAN). Volunteers attended the HNU on two days, separated by two weeks. Three days previous to each visit, participants were instructed not to consume cocoa products (chocolate, soluble cocoa, etc.), juices, tea, wine, grape must, oranges, tangerines, apples, grapes, strawberries or other berries, beets, onions, soybeans and soy derivatives. In addition, volunteers were asked to complete a 24 h food intake recall the day before they attended the HNU in order to monitor any possible food restriction incompliance.
On each intervention day, volunteers arrived at the HNU after an overnight fast. Prior to the intake of the soluble cocoa product, a nurse inserted a cannula in the cubital vein of the non-prevailing arm of the volunteers and blood samples were collected into EDTA-coated tubes at baseline (t = 0) and 0.5, 1, 2, 3, 4, 6, and 8 h after consuming the corresponding cocoa product. The soluble cocoa products, either 15 g of CC or 25 g CC-PP, were dissolved in 200 mL of semi-skimmed milk following manufacturer’s preparation instructions. Plasma was separated by centrifugation (10 min, 3000 rpm, 4 °C) and stored at −80 °C until further analysis. Urine samples were collected at different time intervals (t = −2–0, 0–4, 4–8, 8–12, and 12–24 h) in urine collection flasks that contained 0.5 g of ascorbic acid as preservative and were aliquoted and frozen at −20 °C until analysis. A polyphenol-free breakfast, lunch and afternoon snack were provided 2 h, 4 h, and 8 h after consumption of cocoa products, and water and isotonic beverages were available ad libitum.
A liquid–liquid extraction and protein precipitation with acetonitrile was used to isolate metabolites from plasma. A 1 mL defrosted plasma sample was mixed with 50 μL of ascorbic acid (0.2 g/mL). After vortexing the aqueous mixture, it was added drop wise to 750 μL of cold acetonitrile and vortexed for 2 min before centrifuging at 12,000 rpm for 10 min at 4 °C. The supernatant was separated, and the pellet was re-extracted twice more following the same procedure. Supernatants were combined and reduced to dryness under a stream of nitrogen at 30 °C. The dried samples were resuspended in 150 μL of aqueous formic acid (0.1%) containing 10% acetonitrile acidified with 0.1% formic acid and centrifuged at 4 °C for 20 min at 14,000 rpm. The final supernatant was collected, filtered (0.45 μm pore-size, cellulose-acetate membrane filters, Albet, Dassel (Germany)) and 30 μL were analyzed by high-performance liquid chromatography coupled to electrospray ionisation and quadrupole time-of-flight mass spectrometry (HPLC-ESI-QToF-MS).
Analyses were performed on an Agilent 1200 series LC system coupled to an Agilent 6530A Accurate-Mass Quadrupole Time-Of-Flight (Q-ToF) with ESI-Jet Stream Technology (Agilent Technologies). Compounds were separated on a reverse-phase Ascentis Express C18 (15 cm × 3 mm, […]) column (Sigma-Aldrich Química, Madrid) preceded by a Supelco 55215-U guard column at 30 °C. […]

[2] = Urinary excretion of flavanol metabolites (0-24 h) after a single serving of soluble cocoa product (HPLC-ESI-QToF-MS); format: in vivo, human; details: for Excreted in urine, Basal: basal urine (−2–0 h, before intake); for Excreted in urine, Basal / Excreted in urine, Total / Excreted in urine, 0–4 h / Excreted in urine, 4–8 h / Excreted in urine, 8–12 h / Excreted in urine, 12–24 h: mean ± SD, n = 13; for Excreted in urine, Total: 24 h urine
Experimental: They were non-smoker, non-vegetarian, non-pregnant women, who were not taking any medication or nutritional supplements, and were not suffering from any chronic pathology or gastrointestinal disorder. The sample size was estimated attending to similar previous bioavailability studies. The volunteers gave their informed consent prior to participation.
as §1, with “derivatives.” for “derivatives. In addition, volunteers were asked to complete a 24 h food intake recall the day before they attended the HNU in order to monitor any possible food restriction incompliance.”
On each intervention day, volunteers arrived at the HNU after an overnight fast. […] The soluble cocoa products, either 15 g of CC or 25 g CC-PP, were dissolved in 200 mL of semi-skimmed milk following manufacturer’s preparation instructions. Plasma was separated by centrifugation (10 min, 3000 rpm, 4 °C) and stored at −80 °C until further analysis. […] A polyphenol-free breakfast, lunch and afternoon snack were provided 2 h, 4 h, and 8 h after consumption of cocoa products, and water and isotonic beverages were available ad libitum.
Urine samples were diluted with an equivalent volume of Milli-Q water (50%) and centrifuged at 14000 rpm (10 min, 4 °C). Supernatants were filtered (0.45 μm pore-size cellulose-acetate membrane filters) and a 5 µL aliquot was directly injected into the LC-ESI-QToF-MS equipment.
The test samples, either 30 μL of the plasma extract or 5 μL of diluted urine, were injected and separated using a mobile phase consisting of Milli-Q water (phase A) and acetonitrile (phase B), both containing 0.1% formic acid, at a flow rate of 0.3 mL/min. The mobile phase was initially programmed with 90% of solvent A and 10% of B. The elution program increased to 30% of solvent B in 10 min. Then, the initial conditions (10% solvent B) were recovered in 5 min and maintained for 5 min.
Due to the lack of standards for certain phase II metabolites, they were tentatively quantified using the calibration curves of their corresponding phenolic precursors. […] The rest of microbial metabolites identified, derivatives of hydroxyphenylpropionic, hydroxyphenylacetic, hydroxybenzoic and hippuric acids, were quantified using their respective commercially available standards. Urine concentration of the excreted metabolites was normalized by the volume excreted in each studied interval. […] Calibration curves were freshly prepared in a pool of both plasma and urine due to matrix effects.
Statistical analyses were carried out using the program SPSS (version 23.0, SPSS, Inc., IBM Company, New York, NY, USA). Significant differences between metabolites excreted in urine after consumption of CC and CC-PP cocoa products were evaluated based on non-parametric Wilcoxon test (p < 0.05). To determine the absorption and elimination of epicatechin metabolites after consumption of the soluble cocoa products, metabolite nutrikinetics were studied using the pharmacokinetic functions of Microsoft Excel, calculating the maximum concentration (Cmax), area under curve (AUC) and time to reach maximum concentration (Tmax). Data are expressed as mean ± standard deviation.

[3] = cited from earlier work
[4] = set-up: method as in PMID 23864538; details: based on recovery in the perfusion fluid, eight volunteers; cited from earlier work
[5] = both sexes, oral, 19.8 mg, after CC (19.80 mg flavanols)
[6] = both sexes, oral, after CC-PP (68.25 mg flavanols)
[7] = both sexes, oral, after CC (15 g in 200 mL semi-skimmed milk, 19.80 mg flavanols), read-out: Cmax
[8] = both sexes, oral, after CC-PP (25 g in 200 mL semi-skimmed milk, 68.25 mg flavanols), read-out: Cmax
[9] = after CC-PP (68.25 mg flavanols)

| SMILES | AUC [1, 5] [µM·h] | Tmax [1, 5] [h] | AUC [1, 6] [µM·h] | Cmax [1, 7] [nM] | Tmax [1, 6] [h] | Cmax [1, 8] [nM] | Excreted in urine, Basal ([2]; CC intervention) | Excreted in urine, Basal ([2]; CC-PP intervention) | Excreted in urine, Total ([2]; after CC (19.80 mg flavanols)) [µmol] | Excreted in urine, 0–4 h ([2]; after CC (19.80 mg flavanols)) | Excreted in urine, 4–8 h ([2]; after CC (19.80 mg flavanols)) [µmol] | Excreted in urine, 8–12 h ([2]; after CC (19.80 mg flavanols)) | Excreted in urine, 12–24 h ([2]; after CC (19.80 mg flavanols)) | Excreted in urine, Total [2, 9] | Excreted in urine, 0–4 h [2, 9] | Excreted in urine, 4–8 h [2, 9] [µmol] | Excreted in urine, 8–12 h [2, 9] | Excreted in urine, 12–24 h [2, 9] | further results |
| --- | --- | --- | --- | --- | --- | --- | --- | --- | --- | --- | --- | --- | --- | --- | --- | --- | --- | --- | --- |
| O=C1CCC(Cc2ccc(O)c(OC3OC(C(=O)O)C(O)C(O)C3O)c2)O1 (stereo not shown) [HPVL-3′-glucuronide, 5-(4′-Hydroxyphenyl)-γ-valerolactone-3′-glucuronide] | 0.106 ± 0.021 | 5.6 ± 0.8 | 1.43 ± 0.727 | 31 ± 4 | 5 ± 1.2 | 357 ± 200 | <L.Q. | <L.Q. | 0.600 ± 0.232 | <L.Q. | 0.497 ± 0.204 | 0.103 ± 0.028 µmol | <L.Q. | 2.358 ± 0.766 µmol | <L.Q. | 1.802 ± 0.567 | 0.274 ± 0.060 µmol | 0.282 ± 0.130 µmol |  |
| O=C1CCC(Cc2cccc(OS(=O)(=O)O)c2)O1 (stereo not shown) [PVL-3′-sulfate, 5-Phenyl-γ-valerolactone-3′-sulfate] |  | 4 to 6 | 0.161 ± 0.105 |  | 5.2 ± 2.2 | 39 ± 14 | <L.Q. | <L.Q. | 1.691 ± 0.802 | <L.Q. | 0.860 ± 0.385 | 0.456 ± 0.284 µmol | 0.375 ± 0.133 µmol | 7.8 µmol and 7.752 ± 2.868 µmol | 0.651 ± 0.389 µmol | 4.188 ± 1.535 | 1.223 ± 0.373 µmol | 1.690 ± 0.572 µmol | Cmax ([1]; after CC (15 g in 200 mL semi-skimmed milk, 19.80 mg flavanols)): traces level |
| O=C(O)C1OC(Oc2cc(C3Oc4cc(O)cc(O)c4CC3O)ccc2O)C(O)C(O)C1O (stereo not shown) [Epicatechin-3′-glucuronide] | 0.072 ± 0.028 | 1.5 ± 0.5 | 0.11 ± 0.066 | 25 ± 1 | 1.4 ± 0.8 | 37 ± 1 |  |  | 0.622 ± 0.130 | 0.355 ± 0.071 µmol | 0.267 ± 0.059 | <L.Q. | <L.Q. | 1.653 ± 0.462 µmol | 0.958 ± 0.272 µmol | 0.695 ± 0.190 | <L.Q. | <L.Q. |  |
| Oc1cc(O)c2c(c1)O[C@H](c1ccc(O)c(O)c1)[C@H](O)C2 [epicatechin] |  |  |  |  |  |  |  |  |  |  |  |  |  |  |  |  |  |  | Excretion ([3]; after ingestion of chocolate providing 220 mg of flavanols): 29.8%; Excretion ([3]; after ingestion of cocoa providing 220 mg of flavanols): 25.3%; Jejunal absorption, average [4]: ~ 46%; Detection of un-metabolized compound in the collected biological fluids ([1]; plasma and urine, CC and CC-PP): Neither un-metabolized epicatechin and catechin nor procyanidins B1 and B2 were detected; Detection of un-metabolized compound in urine ([2]; any of the interventions (CC, CC-PP)): Neither epicatechin nor PB2 dimer was detected in urine |
| COc1cc([C@H]2Oc3cc(O)cc(OS(=O)(=O)O)c3C[C@H]2O)ccc1O (single isomer, unassigned) [Epicatechin-methoxy-sulfate (isomer 1), Epicatechin-methoxy-sulfate] | 0.122 ± 0.025 | 1.3 ± 0.6 | 0.173 ± 0.107 | 31 ± 3 | 1.1 ± 0.6 | 41 ± 2 |  |  | 4.428 ± 0.800 | 2.717 ± 0.457 µmol | 1.300 ± 0.197 | 0.154 ± 0.031 µmol | 0.257 ± 0.114 µmol | 12.481 ± 2.243 µmol | 8.642 ± 1.434 µmol | 3.277 ± 0.644 | 0.330 ± 0.095 µmol | 0.232 ± 0.070 µmol |  |
| O=S(=O)(O)Oc1cc([C@H]2Oc3cc(O)cc(O)c3C[C@H]2O)ccc1O [Epicatechin-3′-sulfate] | 0.101 ± 0.023 | 1 ± 0.1 | 0.109 ± 0.076 | 26 ± 3 | 1.2 ± 0.5 | 42 ± 4 |  |  | 2.417 ± 0.439 | 1.323 ± 0.236 µmol | 1.018 ± 0.178 | 0.076 ± 0.025 µmol | <L.Q. | 7.357 ± 1.523 µmol | 3.627 ± 0.797 µmol | 3.572 ± 0.662 | 0.158 ± 0.038 µmol | <L.Q. |  |
